Assay results reported in patent US9034878B2, “Treatment of diseases” (Ampio Pharmaceuticals, Inc., priority 2010, dated 2015).
“And” between values parts separate entries of the source, which are not always exact repeats. Equal entries are not always repeated.

Columns and labels:
[1] = Plasma lipids after a single oral dose of DA-DKP in human volunteers; assay type: in vivo; details: 100 mg oral; all three subjects
Protocol: (§1) • 1. Two human male volunteers and one human volunteer (respectively) were administered 100 mg of DA-DKP (packed in a gelatin capsule) orally on an empty stomach after overnight fasting. The DA-DKP was composed of L-aspartic acid and L-alanine. • 2. Venous blood samples were drawn into heparinized and EDTA vacutainers at baseline (time zero), 2 hours (hrs), 4 hrs and 24 hrs after the ingestion of the DA-DKP. • 3. Blood samples were analyzed for a complete blood count (CBC) and a biochemical survey, including plasma lipids at baseline and at the 24 hrs time points. Plasma was also used for measurement of the level of DA-DKP by a liquid chromatography mass spectrometer (LCMS) method (protocol and results given below). • 4. Peripheral blood monocytes (PBMC) from heparinized bloods were extracted by Ficoll gradient method and analyzed by flow cytometry. The protocol and results are given below. • 5. Urines were collected for 24 hrs and volumes were recorded. DA-DKP levels were also measured by LCMS. • 6. Saliva at 2 hrs was tested for the presence of DA-DKP by LCMS. Summary of Results: • 1. CBC's were unchanged and remained within the normal range. • 2. […] Urine levels of DA-DKP were calculated (see Table 2). • 6. Saliva DA-DKP levels were calculated (see Table 2) • 7. […]

[2] = DA-DKP LCMS measurement in plasma, urine and saliva after oral dose; assay type: in vivo, human; details: 100 mg oral
Protocol: • 1. Two human male volunteers and one human volunteer (respectively) were administered 100 mg of DA-DKP (packed in a gelatin capsule) orally on an empty stomach after overnight fasting. The DA-DKP was composed of L-aspartic acid and L-alanine. • 2. […] Blood samples were analyzed for a complete blood count (CBC) and a biochemical survey, including plasma lipids at baseline and at the 24 hrs time points. Plasma was also used for measurement of the level of DA-DKP by a liquid chromatography mass spectrometer (LCMS) method (protocol and results given below). • 4. Peripheral blood monocytes (PBMC) from heparinized bloods were extracted by Ficoll gradient method and analyzed by flow cytometry. The protocol and results are given below. • 5. Urines were collected for 24 hrs and volumes were recorded. DA-DKP levels were also measured by LCMS. • 6. Saliva at 2 hrs was tested for the presence of DA-DKP by LCMS. Summary of Results: • 1. CBC's were unchanged and remained within the normal range. • 2. BUN, glucose electrolytes, creatinine, liver function tests, total protein, albumin and calcium were unchanged and within the normal range at 24 hours post ingestion. • 3. […] Urine levels of DA-DKP were calculated (see Table 2). • 6. Saliva DA-DKP levels were calculated (see Table 2) • 7. PBMC results are described below. • 8. Effects noticed by subjects: • a. Significant loss of appetite (lasting 8-9 hrs)—3/3 subjects • b. Slight dry mouth—2/3 subjects • c. Thick saliva—1/3 subjects • d. […] Laxative effect—1/3 subjects • f. Slight drowsiness—1/3 subjects * Analgesic Effect:
Plasma or urines were passed through a <5 Kd filter and 50 μl of the flow-through fractions were injected into high performance liquid chromatography (HPLC, 2975 system, Waters, Mass.) coupled to a mass spectrometer (LCT-TOF, Micromass, UK) and DA-DKP was quantified using a strong anion exchange column (Spherisorb, S5 SAX 250 mm×4.0 mm, Waters) and a ternary mobile phase consisting of water, methanol and 200 mM Ammonium Formate (Sigma Aldrich, Mo.), pH 5.4, at 0.5 ml/min flow rate in a gradient as shown in Table A.
The output of the HPLC was split 1:20 (v:v) and injected into the mass spectrometer using negative electrospray ionization (−ESI MS) with a scan range of 80 to 1000 m/z, cone voltage of 30 eV, source temperature of 100° C., and gas temperature of 300° C. DA-DKP was measured by monitoring the mass 185 in time, which corresponds to DA-DKP minus a single proton (—H+). DA-DKP elutes at 10.4 minutes and was quantified by integrating the area under the curve. The area was compared to a standard curve derived from synthetic DA-DKP standards (DMI Synthesis, Newport Wales, UK) of known concentrations (2000 ng/ml, 1000 ng/ml, 400 ng/ml, 200 ng/ml, 100 ng/ml, 20 ng/ml).

[3] = Complete blood count and biochemical survey after oral DA-DKP; assay type: in vivo; details: 100 mg oral, human
Protocol: as §1

[4] = Effects noticed by subjects after oral DA-DKP (appetite, analgesia, side effects); assay type: in vivo, human; details: 100 mg oral
Protocol: • 1. Two human male volunteers and one human volunteer (respectively) were administered 100 mg of DA-DKP (packed in a gelatin capsule) orally on an empty stomach after overnight fasting. The DA-DKP was composed of L-aspartic acid and L-alanine. • 2. Venous blood samples were drawn into heparinized and EDTA vacutainers at baseline (time zero), 2 hours (hrs), 4 hrs and 24 hrs after the ingestion of the DA-DKP. • 3. Blood samples were analyzed for a complete blood count (CBC) and a biochemical survey, including plasma lipids at baseline and at the 24 hrs time points. Plasma was also used for measurement of the level of DA-DKP by a liquid chromatography mass spectrometer (LCMS) method (protocol and results given below). • 4. Peripheral blood monocytes (PBMC) from heparinized bloods were extracted by Ficoll gradient method and analyzed by flow cytometry. The protocol and results are given below. • 5. Urines were collected for 24 hrs and volumes were recorded. DA-DKP levels were also measured by LCMS. • 6. Saliva at 2 hrs was tested for the presence of DA-DKP by LCMS. Summary of Results: • 1. CBC's were unchanged and remained within the normal range. • 2. BUN, glucose electrolytes, creatinine, liver function tests, total protein, albumin and calcium were unchanged and within the normal range at 24 hours post ingestion. • 3. […] Urine levels of DA-DKP were calculated (see Table 2). • 6. Saliva DA-DKP levels were calculated (see Table 2) • 7. PBMC results are described below. • 8. Effects noticed by subjects: • a. Significant loss of appetite (lasting 8-9 hrs)—3/3 subjects • b. Slight dry mouth—2/3 subjects • c. Thick saliva—1/3 subjects • d. […] Laxative effect—1/3 subjects • f. Slight drowsiness—1/3 subjects * Analgesic Effect:
One subject had left knee and left Sacroiliac (SI) joint pain. […] The pain originates probably from inflammation caused by sarcoidosis and was 6-7 on a scale of 1-10 before treatment. The effect lasted for about 4 hrs.

[5] = test system: Peripheral blood mononuclear cells (PBMC); experiment: PBMC CD69 expression by flow cytometry after OKT3 stimulation (ex vivo); assay type: cell-based, human; details: single individual
Protocol: as §1, with “Plasma was also used for measurement of the level of DA-DKP by a liquid chromatography mass spectrometer (LCMS) method (protocol and results given below). • 4.” left out, “The protocol and results are given below. • 5.” left out, “6.” for “6. Saliva at 2 hrs was tested for the presence of DA-DKP by LCMS. Summary of Results: • 1. CBC's were unchanged and remained within the normal range. • 2.”
Peripheral blood mononuclear cells (PBMC) were isolated from peripheral blood, and 2,000,000 cells were cultured in DMEM medium with 10% human AB serum plus 2% (final concentration) of anti-T-cell receptor complex antibody OKT3. […] After culture overnight at 37° C. cells were washed, incubated with an anti-CD69 antibody, fixed and analyzed on the flow cytometer for CD69 expression. […]

[6] = test system: Subcutaneous preadipocytes; experiment: Adipogenesis assay (AdipoRed fluorescence); assay type: cell-based; details: 14 days differentiation
Protocol: Subcutaneous preadipocytes (Zen-Bio, Inc., Research Triangle Park, N.C.) were cultured to near confluency at 5% CO2, 37° C. in Preadipocyte Growth Medium-2 (PGM-2, Lonza, Walkersville, Md.) containing 10% fetal bovine serum (FBS), L-glutamine, and GA-1000. Cells were harvested using trypsin/EDTA (Lonza) and initially seeded in 96-well black/clear bottom plates at 3,000 cells/well. Cells were allowed to form a confluent monolayer for 7 days in culture.
7-day old medium was aspirated and cells were dosed with DA-DKP (doses used in PGM-2 media: 25, 50, or 100 μM) in triplicate on two plates. The DA-DKP was composed of L-aspartic acid and L-alanine. […]
After the 14 day incubation period, culture media were collected from all wells and stored at −20° C. for IL-6 ELISA (see below). […] After 10 minutes, fluorescence was measured on a plate reader set at λEX=485 nm and λEM=572 nm.
The triplicate fluorescent values for each treatment were averaged and subtracted from the average media only (i.e. no cells) wells. For the differentiated wells, a % change was calculated by subtracting the average fluorescent value for the differentiated cells from the undifferentiated cells for each treatment group. […] All data are expressed as ±SD. […]

[7] = test system: interleukin-6 (IL-6); experiment: IL-6 ELISA of preadipocyte culture media; assay type: cell-based; details: after the 2 week differentiation period (data not shown)
Protocol: 7-day old medium was aspirated and cells were dosed with DA-DKP (doses used in PGM-2 media: 25, 50, or 100 μM) in triplicate on two plates. The DA-DKP was composed of L-aspartic acid and L-alanine. PGM-2 differentiation media (containing insulin, dexamethasone, indomethacin, and isobutyl-methylxanthine; Lonza) was added to one plate, while PGM-2 media was added to the other. Plates were then placed back in culture and allowed to incubate for 14 days.
After the 14 day incubation period, culture media were collected from all wells and stored at −20° C. for IL-6 ELISA (see below). Wells were rinsed once with 1×PBS (Lonza). 50 μL M-PER lysis solution (Thermo Scientific, Rockford, Ill.) were added to all wells, and complete cell lysis was achieved by mixing each well. 150 μL 1×PBS was added to each well. 5 μL AdipoRed™ Reagent (Lonza) was added to each well, and the plate was mixed immediately by gentle tapping. After 10 minutes, fluorescence was measured on a plate reader set at λEX=485 nm and λEM=572 nm.
Enzyme-linked immunosorbent assay (ELISA) matched-pair antibodies for interleukin-6 (IL-6) were obtained from Thermo Scientific (Rockford, Ill.). IL-6 was analyzed by ELISA and performed according to the manufacturer's instructions. A 1:10 dilution of each supernatant was measured in duplicate using an IL-6 standard (Thermo Scientific, Rockford, Ill.).

[8] = test system: vascular endothelial barrier; details: provisional application No. 61/380,404; cited from earlier work
[9] = test system: platelets; details: U.S. Pat. Nos. 6,555,543 and 7,732,403; cited from earlier work
[10] = test system: T-cells; details: U.S. Pat. Nos. 6,555,543 and 7,732,403; cited from earlier work
[11] = test system: MAPK; details: reference 12; cited from earlier work
[12] = test system: endothelial cells; details: provisional application No. 61/380,404; cited from earlier work

For `C[C@@H]1NC(=O)[C@H](CC(=O)O)NC1=O` [DA-DKP], which “Lipids at 24 hours post ingestion” value [1] is on record?
Its value is “decreased across the board”.

What about the “DA-DKP plasma level at 24 hrs post ingestion” value ([2]; human) of the same compound?
Its value is “not detectable”.

And the “Time of peak DA-DKP plasma level” value ([2]; human)?
The value was “about 2 hrs”.

And the “DA-DKP in plasma, 15 min” value ([2]; 15 min, per human subject)?
The value was 0.14 µM.

And the “DA-DKP in plasma, 30 min” value ([2]; 30 min, per human subject)?
The value was 0.35 µM.

And the “DA-DKP in plasma, 60 min” value ([2]; 60 min, per human subject)?
Its value is 0.84 µM.

What about the “DA-DKP in plasma, 240 min” value ([2]; 240 min, per human subject) of the same compound?
The value was 0.25 µM and 0.34 µM.

What about the “DA-DKP in plasma, 360 min” value ([2]; 360 min, per human subject) of the same compound?
The value was 0.61 µM.

And the “DA-DKP in Saliva 2 hrs” value ([2]; saliva at 2 hrs, per human subject)?
Its value is 0.22 µM and 0.29 µM.

What about the “DA-DKP in Urine 24 hrs” value ([2]; urine collected for 24 hrs, per human subject) of the same compound?
The value was 4.25 µM and 6.98 µM and 3.52 µM.

And the “BUN, glucose electrolytes, creatinine, liver function tests, total protein, albumin and calcium” value ([3]; 24 hours post ingestion, within the normal range)?
Its value is “unchanged”.

What about the CBC ([3]; remained within the normal range) of the same compound?
The CBC was “unchanged”.

What about the “Duration of loss of appetite” value ([4]; human) of the same compound?
The value was 8 to 9 h.

What about the “Laxative effect, subjects affected” value ([4]; human) of the same compound?
Its value is 1/3.

What about the “Significant loss of appetite, subjects affected” value ([4]; human) of the same compound?
The value was 3/3.

And the “Slight drowsiness, subjects affected” value ([4]; human)?
The value was 1/3.

What about the “Slight dry mouth, subjects affected” value ([4]; human) of the same compound?
Its value is 2/3.

What about the “Thick saliva, subjects affected” value ([4]; human) of the same compound?
Its value is 1/3.

And the “Analgesic effect, subjects affected” value ([4]; human, others did not have pain)?
The value was 1/3.

What about the “Duration of analgesic effect” value ([4]; one subject) of the same compound?
The value was “about 4 hrs”.

What about the “Reduction of SI joint pain” value ([4]; one subject) of the same compound?
Its value is “about 50%”.

What about the “Time to analgesic effect after ingestion” value ([4]; one subject) of the same compound?
Its value is 1 to 2 h.

And the Left knee pain ([4]; one subject, pain 6-7 on a scale of 1-10 before treatment)?
Its Left knee pain is “resolved completely”.

What about the “Time of greatest effect on CD69 expression” value ([5]; after DA-DKP ingestion) of the same compound?
The value was 4 h.

And the “CD69 expression on CD45RA and CD45RO cells” value ([5]; after ingestion of DA-DKP vs time zero, OKT3 stimulation)?
The value was “decreased”.

And the Effect on adipogenesis ([6]; 25 μM)?
The Effect on adipogenesis was “significant decrease”.

What about the Effect on adipogenesis ([6]; 100 μM) of the same compound?
The Effect on adipogenesis was “increase”.

And the “Effect on IL-6 levels” value [7]?
The value was “no significant effect”.

What about the Vascular hyperpermeability [8] of the same compound?
The Vascular hyperpermeability was “inhibit”.

And the Aggregation of platelets [9]?
Its Aggregation of platelets is “inhibit”.

And the “Activation of T-cells” value [10]?
Its value is “inhibit”.

What about the “MAPK activity in T-lymphocytes” value [11] of the same compound?
The value was “inhibitory effect”.

And the “Cytoskeletal network in endothelial cells” value [12]?
The value was “stabilize”.
